Data on three substances can be found in PMC3772838, “Preclinical Development of a Novel Class of CXCR4 Antagonist Impairing Solid Tumors Growth and Metastases” (PLoS ONE, 2013).

Bridges are numbered along the chain shown (N, C = ends). Where no end group is shown, it is not given here.

The first experiment concerns K7M2 murine osteosarcoma cells. Description: K7M2 osteosarcoma lung metastases model. The experiment is classed as in vivo, Balb/c mice. To be noted: cells pre-treated 30 min with 10 µM peptide; 10 mg/kg IP daily for 15 days. How it is done:
All mice were obtained from Harlan (Bar Harbor, ME, USA) and their care was in accord with institutional guidelines. Twenty-five 6-8-week-old female C57BL/6 mice were inoculated into the tail vein with 5×10^5 B16–CXCR4 cells pre-treated for 30 minutes with peptide S (10 µM), peptide R (10 µM), peptide I (10 µM), or AMD3100 (10 µM). Six hours later intraperitoneal (IP) treatment started with AMD3100 (1.25 mg/kg) or each peptide (2 mg/kg) in sterile PBS once a day for 10 days. A week later the mice were sacrificed. The experiment was repeated three times. The lung metastases assay was also conducted with K7M2 murine osteosarcoma cells. Twenty-five 6-8-week-old female Balb/c mice were injected via tail vein with 2.5×10^5 K7M2 cells pre-treated for 30 minutes with AMD3100 (10 µM), peptide S (10 µM), peptide R (10 µM), peptide I (10 µM) and animals were treated IP daily for 15 days with 2.5 mg/kg for AMD3100 group and 10 mg/kg for each peptide groups. A week later the mice were sacrificed. Xenograft tumor growth was evaluated using pEGFP-SN12C cells in exponential growth phase subcutaneously injected into the right flank of twenty-five 6-8-week-old female CD1 nude mice. 2×10^6 SN12C-pEGFP were injected in the right flank of each mouse and treated with AMD3100 (1.25 mg/kg) and peptides (2 mg/kg) for 10 days ip. A week later mice were euthanized and tumor volume evaluated through Leica MacroFluo fluorescence stereomicroscope (Leica microsystem, Houston, TX). The experiment was repeated three times. The Istituto Nazionale per lo Studio e la Cura dei Tumori, Fondazione Giovanni Pascale Independent Etical Comettee approved the study (CEI/600/12).
Figure 4 Peptides R, I and S inhibit murine osteosarcoma lung metastases. (A) Twenty-five 6-8-week-old female Balb/c mice were injected via tail vein with 2.5×10^5 K7M2 cells pre-treated for 30 minutes with AMD3100 (10 µM), peptide R (10 µM), or peptide I (10 µM) or peptide S (10 µM). […]
As to “Arg-Ala-[Cys-Arg-His-Trp-Cys] (RACRHWC; disulfide 3-7) [Peptide S, CXCL12-mimetic disulfide-cyclic peptide]”, the K7M2 lung metastases entry is reported as “reduced lung metastases”.
In the case of “Arg-Ala-[Cys-Arg-Phe-Phe-Cys] (RACRFFC; disulfide 3-7) [Peptide R, CXCL12-mimetic disulfide-cyclic peptide]”, the K7M2 lung metastases entry is listed as “reduced lung metastases”.
For “[Cys-Trp-His-Arg-Cys] (CWHRC; disulfide 1-5) [Peptide I, v-MIP-II mimetic disulfide-cyclic peptide]”, the K7M2 lung metastases result is listed as “reduced lung metastases”.

For another experiment, the system named is PES43 human melanoma cells. Description: CXCL12-mediated wound closure assay. The experiment is classed as cell-based. To be noted: 6 hours post-wounding. How it is done: Migration was assayed in 24-well Transwell chambers (Corning Inc., Corning, NY) using inserts with an 8-µm pore membrane. Membranes were precoated with collagen (human collagen type I/III) and fibronectin (20 µg/mL each). […] After 16 h incubation, cells on the upper surface of the filter were removed using a cotton wool swab; migration of cells in migration media alone was compared with migration in media containing CXCL12. The cells were counted in ten different fields (original magnification ×40). The migration index was defined as the ratio between migrating cells in the experimental group and migrated cells in the control group. For the wound closure assay, tested cells were allowed to reach confluence in six-well plates containing serum-depleted growth medium and scratched with pipette tips to make wounds. The wound closure was observed microscopically 6 hours post-wounding (OKO Time Lapse).
Experiments were conducted using PES43 cells. (A) Migration was assayed in 24-well Transwell chambers using inserts with 8-µm pore membrane. […] Migrated cells on the lower surface were fixed, stained with H&E and counted microscopically. The results are expressed as the migration index relative to migration in presence of BSA alone. […] Images were acquired with OKO Time Lapse. […] PES43 cells were serum-starved and incubated with CXCL12 (100 ng/ml) alone or in presence of AMD3100/peptides. Each peptide was tested in at least three different experiments. Double tailed T-Test was used for statistical analyses. Differences were considered significant at P<0.05 compared to control.
On to “Arg-Ala-[Cys-Arg-His-Trp-Cys] (RACRHWC; disulfide 3-7) [Peptide S, CXCL12-mimetic disulfide-cyclic peptide]”, for which the CXCL12-mediated wound healing entry is listed as “delayed”.
For “Arg-Ala-[Cys-Arg-Phe-Phe-Cys] (RACRFFC; disulfide 3-7) [Peptide R, CXCL12-mimetic disulfide-cyclic peptide]”, the CXCL12-mediated wound healing entry is given as “delayed”.
Still for that read-out and setting: then “[Cys-Trp-His-Arg-Cys] (CWHRC; disulfide 1-5) [Peptide I, v-MIP-II mimetic disulfide-cyclic peptide]”, with “delayed”.

The subject of the next experiment is CXCR3. Description: Anti-CXCR3 antibody (clone 1C6/CXCR3) binding in CXCR3 overexpressing cells. Further details: species or system human. To be noted: COLO205 cells; peptides 10 µM, CXCL11 100 nM, 30 min pre-incubation; Figure S3. As for the experimental part: [The procedure below names another target; the source says it served here with some conditions changed.] (§1) CXCR4 binding was evaluated as previously described. Briefly 5×10^5 CCRF–CEM cells were pre-incubated with 10 µM peptides or AMD3100 in binding buffer (PBS 1× plus 0.2% BSA and 0.1% NaN3) for 30 minutes at 37°C, 5% CO2 and then labeled for 30 minutes with anti-CXCR4 PE-antibody (FAB170P, clone 12G5, R&D Systems, Minneapolis, MN, USA). The cells were analyzed by FACS Canto II cytofluorometer (Becton Dickinson Immunocytometry Systems, Mountain View, CA, USA).
(§2) Fluo-3AM and Pluronic acid were added to each sample to increase Fluo-3AM solubility and improve dye loading into the cells. (TIF) Click here for additional data file.
As for “Arg-Ala-[Cys-Arg-His-Trp-Cys] (RACRHWC; disulfide 3-7) [Peptide S, CXCL12-mimetic disulfide-cyclic peptide]”, the “binding to CXCR3 (anti-CXCR3 antibody)” value is on record as “unaffected”.
Still for that read-out and setting: then “Arg-Ala-[Cys-Arg-Phe-Phe-Cys] (RACRFFC; disulfide 3-7) [Peptide R, CXCL12-mimetic disulfide-cyclic peptide]”, with “unaffected”; and “[Cys-Trp-His-Arg-Cys] (CWHRC; disulfide 1-5) [Peptide I, v-MIP-II mimetic disulfide-cyclic peptide]”, with “unaffected”.

In a further experiment the test system is CXCR4. Description: CXCL12-induced calcium mobilization assay (Fluo-3 AM). It counts as cell-based, human. To be noted: CCRF-CEM cells, 10 µM peptide, percent of fluorescence with CXCL12 alone; at least three experiments. How it is done:
For the calcium efflux studies a 2 mg/mL stock solution of Fluo-3 acetoxymethylester (Invitrogen, Carlsbad, CA) in anhydrous DMSO was used. […] CCRF–CEM cells were resuspended in cell loading buffer (PBS, 1% FCS, 1 mmol/L MgCl2, and 1 mmol/L CaCl2) at 5×10^5 cells/mL. Fluo-3AM and Pluronic acid were added to each sample to increase Fluo-3AM solubility and improve dye loading into the cells. Baseline calcium efflux was established, then chemokines were added as indicated and chemokine-induced calcium efflux was measured.
(§3) (A) The amount of peptides or AMD3100 bound was assessed indirectly by flow cytometry using the PE-labelled anti-CXCR4 antibody (clone 12G5). Results are expressed as the percent antibody bound. (B) The Ca^2+ influx assay was performed using CCRF-CEM cells and Fluo-3 AM calcium indicator. CCRF-CEM cells were incubated 30 minutes at 37°C with Fluo-3 AM and 15 minutes with AMD3100 (10 µM)/peptides (10 µM) and then treated with CXCL12. Results are expressed as the percent of Fluo-3 AM fluorescence in presence of CXCL12 alone. Each peptide was tested in at least three different experiments. Double tailed T-Test was used for statistical analyses. Differences were considered significant at P<0.05 compared to control. Control (CTRL).
Background: Calcium flux is commonly read through the fluorescence of an indicator in the cells.
“Arg-Ala-[Cys-Arg-His-Trp-Cys] (RACRHWC; disulfide 3-7) [Peptide S, CXCL12-mimetic disulfide-cyclic peptide]”: the “CXCL12-induced calcium efflux (Fluo-3 AM fluorescence)” value is 49.75 % of control.
As for “Arg-Ala-[Cys-Arg-Phe-Phe-Cys] (RACRFFC; disulfide 3-7) [Peptide R, CXCL12-mimetic disulfide-cyclic peptide]”, the “CXCL12-induced calcium efflux (Fluo-3 AM fluorescence)” value is given as 51.25 % of control.
Same read-out and setting: with “[Cys-Trp-His-Arg-Cys] (CWHRC; disulfide 1-5) [Peptide I, v-MIP-II mimetic disulfide-cyclic peptide]” the entry was “Minimal effect”.

The next experiment has as its system CXCR4. Description: Competition with 12G5 anti-CXCR4 antibody binding (flow cytometry). To be noted: CCRF-CEM cells, 10 µM peptide, 30 min pre-incubation at 37°C, PE-labelled 12G5, flow cytometry; at least three experiments. Further details: species or system human. How it is done:
as §1, §3
For the substance “Arg-Ala-[Cys-Arg-His-Trp-Cys] (RACRHWC; disulfide 3-7) [Peptide S, CXCL12-mimetic disulfide-cyclic peptide]”, the “association of the 12G5-CXCR4 antibody to the receptor” value (from here on “association”) is 17 % of control.
For the substance “Arg-Ala-[Cys-Arg-Phe-Phe-Cys] (RACRFFC; disulfide 3-7) [Peptide R, CXCL12-mimetic disulfide-cyclic peptide]”, the “association” value is recorded as 21 % of control.
“[Cys-Trp-His-Arg-Cys] (CWHRC; disulfide 1-5) [Peptide I, v-MIP-II mimetic disulfide-cyclic peptide]”: the “association” value is listed as 45 % of control.

A further experiment relates to CXCR7. Briefly: Anti-CXCR7 antibody (clone 11G8) binding in CXCR7 overexpressing cells. Further details: species or system human. To be noted: MCF-7 cells; peptides 10 µM, CXCL11 100 nM, 30 min pre-incubation; Figure S3. How it is done:
[The procedure below names another target; the source says it served here with some conditions changed.] as §1, §2
As to “Arg-Ala-[Cys-Arg-His-Trp-Cys] (RACRHWC; disulfide 3-7) [Peptide S, CXCL12-mimetic disulfide-cyclic peptide]”, the “binding to CXCR7 (anti-CXCR7 antibody)” value is given as “unaffected”.
For “Arg-Ala-[Cys-Arg-Phe-Phe-Cys] (RACRFFC; disulfide 3-7) [Peptide R, CXCL12-mimetic disulfide-cyclic peptide]”, the “binding to CXCR7 (anti-CXCR7 antibody)” value was “unaffected”.
As to “[Cys-Trp-His-Arg-Cys] (CWHRC; disulfide 1-5) [Peptide I, v-MIP-II mimetic disulfide-cyclic peptide]”, the “binding to CXCR7 (anti-CXCR7 antibody)” value was “unaffected”.
